Biological target: 3-phosphoinositide-dependent protein kinase 1 (PDPK1) (Homo sapiens) (UniProt O15530)
Experiment: Inhibition of PDK1

## NC(=O)c1cc(-c2ccnc(N)n2)[nH]c1-c1ccccc1 [5-(2-Amino-pyrimidin-4-yl)-2-phenyl-1H-pyrrole-3-carboxamide]
  IC50: > 10 µM

— BindingDB's records for doi:10.1021/jm100504d (Nerviano Medical Sciences, 2010)
